The text below walks through data of publication PMC7659962, “Essential Oils from Monarda fistulosa: Chemical Composition and Activation of Transient Receptor Potential A1 (TRPA1) Channels” (Molecules, 2020).

The target in this assay is T1, rTRPA1 (Rattus norvegicus, UniProt Q6RI86).
T1 construct: gene Trpa1
The experiment in a line: Fura-2 calcium imaging in stably transfected HEK […] cells. The following applies: 100 µM; agonist; HBSS pH […]; […] ratio change from baseline; blocked by HC-030031; nontransfected HEK cells as control. The format is cell-based.

Each structure is given as a SMILES string.

T1 sequence (Q6RI86 whole entry): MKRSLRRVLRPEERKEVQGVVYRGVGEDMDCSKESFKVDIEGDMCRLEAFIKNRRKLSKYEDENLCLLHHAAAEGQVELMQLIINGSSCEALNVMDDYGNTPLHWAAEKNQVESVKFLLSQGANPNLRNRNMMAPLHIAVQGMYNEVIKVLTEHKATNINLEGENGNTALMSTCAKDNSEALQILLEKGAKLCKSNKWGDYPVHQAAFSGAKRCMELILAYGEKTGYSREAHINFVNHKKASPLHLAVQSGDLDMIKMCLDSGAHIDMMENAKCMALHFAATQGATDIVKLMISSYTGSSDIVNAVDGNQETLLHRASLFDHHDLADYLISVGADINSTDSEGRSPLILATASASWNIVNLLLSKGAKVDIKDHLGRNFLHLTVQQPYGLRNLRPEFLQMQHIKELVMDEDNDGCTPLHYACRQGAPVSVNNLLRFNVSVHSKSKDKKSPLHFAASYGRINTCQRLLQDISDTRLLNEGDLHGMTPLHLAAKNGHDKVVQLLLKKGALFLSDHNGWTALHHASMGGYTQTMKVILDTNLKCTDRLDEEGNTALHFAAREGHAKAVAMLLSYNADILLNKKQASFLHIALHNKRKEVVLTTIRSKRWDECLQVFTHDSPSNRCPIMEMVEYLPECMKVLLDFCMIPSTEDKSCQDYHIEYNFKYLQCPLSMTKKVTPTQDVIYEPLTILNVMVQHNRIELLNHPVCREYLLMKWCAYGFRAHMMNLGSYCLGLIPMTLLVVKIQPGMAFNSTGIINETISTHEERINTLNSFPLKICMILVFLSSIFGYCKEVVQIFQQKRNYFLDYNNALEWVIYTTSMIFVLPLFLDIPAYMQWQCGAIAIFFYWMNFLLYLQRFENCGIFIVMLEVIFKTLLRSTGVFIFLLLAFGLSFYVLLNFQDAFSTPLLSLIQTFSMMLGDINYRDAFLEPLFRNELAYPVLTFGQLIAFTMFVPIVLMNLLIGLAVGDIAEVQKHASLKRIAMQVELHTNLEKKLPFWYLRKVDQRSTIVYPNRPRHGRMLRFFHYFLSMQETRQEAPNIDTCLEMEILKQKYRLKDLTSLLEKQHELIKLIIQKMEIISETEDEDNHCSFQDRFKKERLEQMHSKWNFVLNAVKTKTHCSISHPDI

`Cc1ccc(C(C)C)cc1O` [Carvacrol]: the “HEK Cells / rTRPA1 / [Ca^2+]i Change” value is 0.340 ± 0.012. As to `Cc1ccc(C(C)C)c(O)c1` [Thymol], the “HEK Cells / rTRPA1 / [Ca^2+]i Change” value is reported as 0.849 ± 0.013. Under `C=CC(=C)CCC=C(C)C` [β-Myrcene] stands 0.111 ± 0.003.
